According to patent US20040009952A1, “TGF-beta gene overexpression preventing substances for the treatment of disorders connected with pathological overexpression of TGF-beta” (priority 1998, published 2004):

Tested on: TGF-β1 mRNA
Experiment: Glucose- or PMA-induced TGF-β1 mRNA overexpression in porcine mesangial cells (RT-PCR, capillary electrophoresis)
Type: cell-based
Conditions: PMA; 10 μg/ml GAG; PMA alone 312; mean of 2 determinations
Source text: To assess the inhibitory activity of the GAG action on TGF-β1 overexpression an in vitro assay was established. In this assay structurally distinct GAGs were investigated for their activity to inhibit stimulated TGF-β1 mRNA overexpression in cultured target cell. For the development of glomerulosclerosis (e.g. diabetes) mesangial cells are one major pathological target. Mesangial cells were isolated, characterized and grown as decribed by Kolm et al. Am. J. Physiol. 270: F812-F821, 1996. Cells were stimulated with PMA in the presence and absence of a variety of 10 μg/ml of GAGs and related compounds. Cellular mRNA TGF-β1I levels were determined as decribed in Example II.
The separation and the precise quantification of the PCR products was performed on a Biofocus 3000 capillary electrophoresis system equipped with a laser-induced fluorescence detector (Bio-Rad, Munich, Germany) using an argon-ion laser. Excitation power was approximately 3.5 mW at =488 nm, and fluorescence emission was detected after passing through a 520 nm band pass filter. […] For on-column DNA fluorescence labeling, 1 μl Syber Green I (Molecular probes, Eugene, Or, USA) was addes per ml. […] The migration time for the PCR products was 5.2 min for TGF-β1 (161 bp) and 6.5 min for GAPDH (983 bp) All peak areas were calculated automatically using Biofocus Integration Software. […]

Which “TGF-β1 mRNA” value does the source give for chitosan-6-sulfate here?
Its value is 116 % of control.
